Data on four molecules can be found in patent US20130324508A1, “BIOMARKER FOR PROSTATE CANCER AND METHOD OF USING THE SAME” (UNIVERSITY OF TENNESSEE RESEARCH FOUNDATION, priority 2012, published 2013).

In one experiment the test system is PC-3 cells. The settings on record: PC-3 cells treated with ERK pathway inhibitor; cited from earlier work.
In experiment [1] the target is Human GPRC6A, endogenous in human prostate cancer cell lines 22Rv1 and PC-3 (human) (UniProt Q5T6X5). The experiment can be described thus: cell-based or functional assay.
Experiment [2] relates to PC-3. The experiment in a line: ERK activation in PC-3 prostate cancer cells (Western blot). In kind it is cell-based, human. The settings on record: PC-3 (androgen receptor negative); calcium 10 mM, zinc 0.2 mM, OC 20 ng/ml, arginine 20 mM, testosterone-BSA 60 nM; 5 min; FIG. 2B. The procedure: (§1) Briefly, human prostate cancer cells and the cells transfected with GPRC6A will be made quiescent by overnight incubation in serum-free DMEM/F12 containing 0.1% BSA and stimulated with various ligands at different doses. ERK activation will be assessed 5 to 30 minutes after treatment by immunoblotting using anti-phospho-ERK1/2 MAP kinase antibody (Cell Signaling Technology) corrected for the amount of ERK using an anti-ERK1/2 MAP Kinase antibody (Cell Signaling Technology) to measure ERK levels.
(§2) Referring to FIG. 2. […] Here, calcium (1-20 mM), zinc (0.2-0.8 mM), OC (5-60 ng/ml), arginine (5-30 mM), and testosterone-BSA (5-100 nM) are confirmed to be functional ligands for GPRC6A (16-17, 19). […] Calcium (10 mM), zinc (0.2 mM), OC (20 ng/ml), arginine (20 mM), and testosterone-BSA (60 nM) increased phospho-ERK in both of these cells. The HEK cells transfected with GPRC6A or without the plasmid cDNA of GPRC6A or 22Rv1 or PC-3 were incubated in Dulbecco's modified Eagle's medium/F-12 containing 0.1% bovine serum albumin quiescence media and exposed to the extracellular calcium, OC, arginine, or testosterone-BSA at indicated concentrations for 5 min, and ERK activation was determined as described under Materials and Methods. Representative blots are shown, and the results were verified in at least three independent experiments.
(§3) To confirm the importance of GPRC6A signaling in prostate cancer cell line, the response to GPRC6A ligands was accessed after knock-down of GPRC6A using siRNA. For these studies, ERK activity was assessed in 22Rv1 and PC-3 cells stably transfected with GPRC6A siRNA-202 and siRNA-514. These responses were compared control groups consisting of mock-transfected cells and transfected cells with a random negative control siRNA plasmid.

The next experiment deals with 22Rv1 or PC-3. The experiment in a line: Cell proliferation by hemocytometer cell count. The settings on record: 22Rv1 or PC-3, 72 h culture, versus control without added ligand; FIG. 3. In kind it is cell-based, human. The procedure:
The prostate cancer cell lines 22Rv1, PC-3 and LNcaP and the prostate cell lined RWPE-1 derived from normal prostate were obtained from the American Type Culture Collection (Manassas, Va.). The prostate cells were maintained in RPMI 1640 supplemented with 10% fetal bovine serum (Gibco Life Technologies, Inc.). Cells (10^3 cells/well) were cultured in triplicate in a 96-well flat-bottomed microculture dish using RPMI 1640 containing 10% CFBS in the presence and absence of various concentrations of GPRC6A ligands, including: calcium, amino acids, calcimimetic and OC for 72 h. Cell proliferation was determined by counting cells with a hemocytometer (21).
Now referring to FIG. 3. To determine if GPRC6A ligands enhance prostate cell growth, changes were accessed in cell numbers in 22Rv1 and PC-3 cells exposed to different concentrations of extracellular calcium or OC over a three-day culture period. […] Cell proliferation was determined by counting cells in a hemocytometer method as described in Materials and methods. In all of the above studies, values for relative cell proliferation (expressed as percent of control) represent the mean±SEM of a minimum of three separate experiments. * indicates a significant difference from control and stimulation at p<0.05, respectively.

The test system of experiment [3] is 22Rv1. The experiment can be described thus: Chemotaxis assay of 22Rv1 cells. In kind it is cell-based, human. The settings on record: migration toward calcium or OC, various concentrations; FIG. 6C. The procedure:
The migration of 22Rv1 cells stably expressing negative control siRNA and human GPRC6A-specific siRNA using a previously described chemotaxis assay (22). The migration index was calculated, and was defined as number of cells crossing the filter toward calcium or OC (various concentrations)/number of cells migrating toward medium alone (control). Each experiment was performed at least three times, in duplicate.
Now referring to FIG. 6. To assess whether GPRC6A mediates prostate cancer cells chemotaxis and metastases, the ability of calcium and OC to evoke chemotaxis of human prostate cancer cell 22Rv1 expressing GPRC6A was examined. The ligands of GPRC6A, OC, arginine and R1881 stimulated gene expression of PSA (FIG. A) and Runx2 (FIG. B) were attenuated by GPRC6A siRNA in 22Rv1, human prostate cancer cells. […] The experiments were described in Materials and methods. In all of the above studies, values for relative cell proliferation (expressed as percent of control) represent the mean±SEM of a minimum of three separate experiments.

Experiment [4] concerns non-transfected HEK-293 cells. The experiment in a line: ERK activation in non-transfected HEK-293 cells (Western blot). In kind it is cell-based. The settings on record: same ligand concentrations, 5 min. The procedure: as §1, §2
In general terms: In western blotting, separated proteins are transferred to a membrane and probed.

A further experiment relates to GPRC6A. The experiment in a line: ERK activation in HEK-293 cells transfected with GPRC6A (Western blot). In kind it is cell-based. The settings on record: HEK-293 overexpressing GPRC6A; 5 min; calcium 1-20 mM, zinc 0.2-0.8 mM, OC 5-60 ng/ml, arginine 5-30 mM, testosterone-BSA 5-100 nM; FIG. 2A. The procedure: as §1, §2
Experiment [5] relates to 22Rv1. The experiment in a line: ERK activation in 22Rv1 prostate cancer cells (Western blot). In kind it is cell-based, human. The settings on record: 22Rv1 (androgen receptor positive); calcium 10 mM, zinc 0.2 mM, OC 20 ng/ml, arginine 20 mM, testosterone-BSA 60 nM; 5 min; FIG. 2B. The method, then:
as §1, §2, §3

The test system of experiment [6] is PC-3. The experiment in a line: PSA and Runx 2II gene expression in PC-3 cells (real time RT-PCR). In kind it is cell-based, human. The note with it: 8 hours stimulation. The procedure: (§4) Human tissue cDNAs were obtained from Clontech Laboratories, Inc. Total RNA from human prostate cancer cells was isolated with RNeasy Mini Kit (Qiagen Inc., Valencia, Calif.). RT-PCR was done using two-step RNA PCR (Perkin-Elmer). In separate reactions, 2.0 μg of DNase-treated total RNA was reverse-transcribed into cDNA with the respective reverse primers specified below and Moloney murine leukemia virus reverse transcriptase (Gibco Life Technologies, Inc.). Reactions were carried out at 42° C. for 60 min followed by 94° C. for 5 min and 5° C. for 5 min. The products of first-strand cDNA synthesis were directly amplified by PCR using AmpliTaq DNA polymerase (Perkin-Elmer). The primers for human GPRC6A are as follows: hGPRC6A.F203: […] (SEQ ID NO: 1) and hGPRC6A.R630: […] (SEQ ID NO: 2). For housekeeping gene control G3PDH gene, G3PDH.F143: […] (SEQ ID NO: 3) and G3PDH.R1050: […] (SEQ ID NO: 4). For quantitative real time RT-PCR assessment of PSA and Runx 2II genes expression, total RNA was isolated and reverse transcribed from 22Rv1 cells that stimulated with or without OC (80 ng/ml), arginine (30 mM) and R1881 (100 nM) as previously described using specific primer sets. The primers sequences were PSA. For: […] (SEQ ID NO: 5) and PSA.Rev: […] (SEQ ID NO: 6); Runx 2. For: […] (SEQ ID NO: 7) and Runx 2. Rev: […] (SEQ ID NO: 8), and the threshold cycle (Ct) of tested-gene product from the indicated genotype was normalized to the Ct for cyclophilin A as previously described (18).
(§5) After 8 hours stimulation, OC, arginine and R1881 stimulated PSA and Runx 2II gene expression in human prostate cancer 22Rv1 (FIG. 4A and FIG. 4B) and PC-3 cells (FIG. 4C and FIG. 4D). * indicates a significant difference from control and stimulation at p<0.05 respectively.

The subject of experiment [7] is 22Rv1. The experiment in a line: PSA and Runx 2II gene expression in 22Rv1 cells (real time RT-PCR). In kind it is cell-based, human. The note with it: 22Rv1, 8 hours stimulation, OC 80 ng/ml, arginine 30 mM, R1881 100 nM. The method, then: as §4, §5
To investigate whether the observed ligand-induced PSA and Runx2 gene expression in the prostate cancer cells is due to simulation of GPRC6A, the response to GPRC6A ligands was examined after knock-down of GPRC6A. ERK activity was assessed in 22Rv1 stably transfected with GPRC6A siRNA-514 and compared this response to transfected cells with a random negative control siRNA plasmid, which were used as controls.

A further experiment deals with DU145. The note with it: androgen-independent DU145 cells; cited from earlier work.
A further experiment deals with LNCaP. The settings on record: androgen-dependent LNCaP cells; cited from earlier work.
The test system of experiment [8] is PC-3. The settings on record: androgen-independent PC-3 cells; cited from earlier work.

Ends that are not written are not given here.

Chain of UniProt Q5T6X5 (Q5T6X5 19-926): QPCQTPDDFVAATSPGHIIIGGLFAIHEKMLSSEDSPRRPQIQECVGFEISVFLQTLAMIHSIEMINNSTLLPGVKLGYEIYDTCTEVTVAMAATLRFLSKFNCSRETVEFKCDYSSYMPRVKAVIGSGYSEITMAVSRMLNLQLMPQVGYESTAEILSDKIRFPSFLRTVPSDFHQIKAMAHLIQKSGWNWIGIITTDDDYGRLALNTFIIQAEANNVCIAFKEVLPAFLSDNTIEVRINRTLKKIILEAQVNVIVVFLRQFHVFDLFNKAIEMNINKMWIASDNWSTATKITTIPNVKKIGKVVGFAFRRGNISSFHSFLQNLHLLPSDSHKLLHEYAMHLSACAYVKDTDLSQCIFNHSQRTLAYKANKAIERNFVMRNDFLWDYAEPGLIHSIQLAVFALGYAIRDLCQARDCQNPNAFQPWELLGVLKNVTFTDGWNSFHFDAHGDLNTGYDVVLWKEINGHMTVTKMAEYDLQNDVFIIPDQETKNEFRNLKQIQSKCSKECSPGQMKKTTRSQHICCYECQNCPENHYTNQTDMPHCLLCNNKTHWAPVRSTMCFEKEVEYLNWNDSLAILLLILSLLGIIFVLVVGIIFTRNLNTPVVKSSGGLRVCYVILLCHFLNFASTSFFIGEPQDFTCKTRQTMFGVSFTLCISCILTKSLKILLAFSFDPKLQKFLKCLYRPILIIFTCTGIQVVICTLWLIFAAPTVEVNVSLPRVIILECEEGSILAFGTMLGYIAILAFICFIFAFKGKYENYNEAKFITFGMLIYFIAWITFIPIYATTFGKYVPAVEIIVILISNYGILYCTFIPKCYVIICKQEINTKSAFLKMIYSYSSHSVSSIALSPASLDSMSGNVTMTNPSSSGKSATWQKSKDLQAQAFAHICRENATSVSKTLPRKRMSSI

On to `COc1cccc(-c2cc(=O)c3ccccc3o2)c1N` [PD98059], for which the growth-factor-mediated cell proliferation entry in the experiment with PC-3 cells was “obliterates”.

“Osteocalcin (purified from bovine bone) (from UniProt P02820 52-100) (ligand)” came in with a cell number after 72 h culture of 22Rv1 and PC-3 cells with OC in [1] of 70%.

In the case of “OC: Osteocalcin (purified from bovine bone), vitamin-K dependent hormone, GPRC6A ligand (YLDHWLGAPAPYPDPLEPKREVCELNPDCDELADHIGFQEAYRRFYGPV; ends and bridges not checked; cysteine pairing not given here; UniProt P02820 52-100, looked up)”, the phospho-ERK entry in the experiment with PC-3 [2] and in the experiment with 22Rv1 [5] was “increased” throughout. The “increase in cell number” value in the experiment with 22Rv1 or PC-3 is given as around 70%. Besides, in the experiment with 22Rv1 [3], the “chemotaxis of 22Rv1 prostate cancer cells” value was “induced the chemotaxis”. For the same molecule, the ERK response entry in [4] is given as “failed to respond”. For the same molecule, the “stimulation of ERK activity” value in the experiment on GPRC6A is given as “dose-dependent stimulation”. Further, the PSA gene expression entry in the experiment with PC-3 [6] (FIG. 4C) and in the experiment with 22Rv1 [7] (FIG. 4A) was “stimulated” in each case. Moreover, the “Runx 2II gene expression” value in the experiment with PC-3 [6] (FIG. 4D) and with 22Rv1 [7] (FIG. 4B) was “stimulated” each time.

In the case of `C[N+](C)(C)CCOC(N)=O` [carbachol], the ERK phosphorylation entry is “ERK phosphorylation is noted” in the experiment on DU145, “not” in the experiment with LNCaP and “ERK phosphorylation is noted” in the experiment with PC-3 [8].
